Converted amounts (≈) assume the structure as drawn.
Experiments:
[1] = system: Mycobacterium tuberculosis; test: Antibacterial activity against Mycobacterium tuberculosis H37Ra measured after 7 days by resazurin reduction microplate assay; type: functional; conditions: 168 h, time 7 day
[2] = system: Mycobacterium tuberculosis; test: Antibacterial activity against Mycobacterium tuberculosis H37Rv assessed as reduction in pellet formation measured after 7 to 14 days by alamar blue assay; type: functional; conditions: time 7-14 day
[3] = system: Mycobacterium tuberculosis; test: Antibacterial activity against Mycobacterium tuberculosis IAR2 assessed as reduction in pellet formation measured after 7 to 14 days by alamar blue assay; type: functional; conditions: time 7-14 day
[4] = compound: COc1ccc(C(=O)CSc2nc3ccccc3c(=N)n2-c2ccccc2)cc1; test: Competitive inhibition of Mycobacterium tuberculosis H37Rv Eis protein using varying concentrations of kanamycin as substrate assessed as Vmax at 6.25 uM by Lineweaver-Burk plot analysis (reference value: 119 +/- 11 microM)
[5] = compound: COc1ccc(C(=O)CSc2nc3ccccc3c(=N)n2-c2ccccc2)cc1; test: Competitive inhibition of Mycobacterium tuberculosis H37Rv Eis protein using varying concentrations of kanamycin as substrate assessed as Km at 11 uM by Lineweaver-Burk plot analysis (reference value: 448 +/- 99 microM)
[6] = compound: COc1ccc(C(=O)CSc2nc3ccccc3c(=N)n2-c2ccccc2)cc1; test: Competitive inhibition of Mycobacterium tuberculosis H37Rv Eis protein using varying concentrations of kanamycin as substrate assessed as Km at 6.25 uM by Lineweaver-Burk plot analysis (reference value: 448 +/- 99 microM)
[7] = compound: COc1ccc(C(=O)CSc2nc3ccccc3c(=N)n2-c2ccccc2)cc1; test: Competitive inhibition of Mycobacterium tuberculosis H37Rv Eis protein using varying concentrations of kanamycin as substrate assessed as Vmax at 11 uM by Lineweaver-Burk plot analysis (reference value: 119 +/- 11 microM)
[8] = compound: COc1ccc(C(=O)CSc2nc3ccccc3c(=N)n2-c2ccccc2)cc1; test: Competitive inhibition of Mycobacterium tuberculosis H37Rv Eis protein using varying concentrations of kanamycin as substrate assessed as Vmax at 15 uM by Lineweaver-Burk plot analysis (reference value: 119 +/- 11 microM)
[9] = compound: COc1ccc(C(=O)CSc2nc3ccccc3c(=N)n2-c2ccccc2)cc1; test: Competitive inhibition of Mycobacterium tuberculosis H37Rv Eis protein using varying concentrations of kanamycin as substrate assessed as Km at 15 uM by Lineweaver-Burk plot analysis (reference value: 448 +/- 99 microM)

Row | Molecule | MIC [1] [µM] | also measured
1 | C=CCn1c(SCC(=O)c2ccccc2)nc2sc3c(c2c1=O)CCCC3 | > 200 | –
2 | COc1ccc(C(=O)CSc2nc3sc4c(c3c(=O)n2-c2ccccc2)CCCC4)cc1 | > 200 | –
3 | N#C/C(=C\c1c[nH]c2ccccc12)C(=O)NCCCc1ccccc1 | > 200 | –
4 | O=C(CSc1nc2sc3c(c2c(=O)n1-c1ccccc1)CCCC3)c1ccc(Cl)c(Cl)c1 | > 200 | –
5 | CCCCOC(=O)/C(C#N)=C/c1c[nH]c2ccccc12 | > 200 | –
6 | N#C/C(=C\c1c[nH]c2ccccc12)C(=O)N1CCCC1 | > 200 | –
7 | N#C/C(=C\c1c[nH]c2ccccc12)C(=O)Nc1ccccc1 | > 200 | –
8 | C=CCn1c(SCC(=O)c2ccc(C)cc2)nc2sc3c(c2c1=O)CCCC3 | > 200 | –
9 | O=C(CSc1nc2ccccc2c(=O)n1-c1ccccc1)c1ccc(Cl)cc1 | 200 (≈ 81.4 µg/mL) | –
10 | N#C/C(=C\c1c[nH]c2ccccc12)C(=O)NCCN1CCCCC1 | 200 (≈ 64.5 µg/mL) | –
11 | N#C/C(=C\c1c[nH]c2ccccc12)C(=O)NCc1ccccc1 | > 200 | –
12 | C=CCn1c(SCC(=O)c2ccccc2)nc2ccccc2c1=N | 200 (≈ 67.1 µg/mL) | –
13 | CC[C@@H](CO)NCCN[C@@H](CC)CO [ETHAMBUTOL] | 8 (≈ 1.63 µg/mL) | –
14 | O=C(CSc1nc2sc3c(c2c(=O)n1Cc1ccccc1)CCCC3)c1cccc(Cl)c1 | > 200 | –
15 | CCOC(=O)/C(C#N)=C/c1c[nH]c2ccccc12 | > 200 | –
16 | O=C(CSc1nc2ccccc2c(=O)n1-c1ccccc1)c1ccccc1 | 200 (≈ 74.5 µg/mL) | –
17 | COC(=O)/C(C#N)=C/c1c[nH]c2ccccc12 | > 200 | –
18 | Cc1cc(C)c2c(C(=O)NC3CCCCC3)c[nH]c2c1 | – | MIC [2]: 4 ng/mL (≈ 0.0148 µM); MIC [3]: ≥ 250 ng/mL
19 | C=CCn1c(SCC(=O)c2ccccc2)nc2ccccc2c1=O | 200 (≈ 67.3 µg/mL) | –
20 | O=C(CSc1nc2sc3c(c2c(=O)n1Cc1ccccc1)CCCC3)c1ccccc1 | > 200 | –
21 | COc1c(N2C[C@@H]3CCCN[C@@H]3C2)c(F)cc2c(=O)c(C(=O)O)cn(C3CC3)c12 [MOXIFLOXACIN] | 0.2 (≈ 0.0803 µg/mL) | –
22 | C=CCn1c(SCC(=O)c2ccc(OC)cc2)nc2ccccc2c1=N | > 200 | –
23 | N-acetyltransferase Eis (Mycobacterium tuberculosis (strain ATCC 25618 / H37Rv)), P9WFK7 (protein) MTVTLCSPTEDDWPGMFLLAAASFTDFIGPESATAWRTLVPTDGAVVVRDGAGPGSEVVGMALYMDLRLTVPGEVVLPTAGLSFVAVAPTHRRRGLLRAMCAELHRRIADSGYPVAALHASEGGIYGRFGYGPATTLHELTVDRRFARFHADAPGGGLGGSSVRLVRPTEHRGEFEAIYERWRQQVPGGLLRPQVLWDELLAECKAAPGGDRESFALLHPDGYALYRVDRTDLKLARVSELRAVTADAHCALWRALIGLDSMERISIITHPQDPLPHLLTDTRLARTTWRQDGLWLRIMNVPAALEARGYAHEVGEFSTVLEVSDGGRFALKIGDGRARCTPTDAAAEIEMDRDVLGSLYLGAHRASTLAAANRLRTKDSQLLRRLDAAFASDVPVQTAFEF | – | Vmax [4]: 112 µM/s; Km [5]: 721 µM; Km [6]: 717 µM; Vmax [7]: 108 µM/s; Vmax [8]: 94 µM/s; Km [9]: 632 µM
